Measurements reported in patent US10774080B2, “Pyrimidine compound as JAK kinase inhibitor” (THERAVANCE BIOPHARMA R&D IP, LLC, priority 2017, dated 2020).
Entries after “also recorded” stand apart in the source; their conditions may differ. Read-outs that look alike come from different tables or passages of the source.

Tests used:
[1] = Assay 5: rat pharmacokinetics; type: in vivo, male Sprague Dawley rats; details: male, Sprague Dawley
Description: Assay 5: Rat Pharmacokinetics Assay The objective of this study was to assess the pharmacokinetics of compound (I) in plasma following single oral (PO, n=3) or intravenous (IV, n=2) administration to male Sprague Dawley rats. Three male Sprague Dawley rats were administered a single IV dose of compound (I) (1.0 mg/kg in 5% DMSO+20 mM Citrate buffer pH4) via a jugular vein catheter or a single PO dose of 5 mg/kg via oral gavage (5.0 mg/kg in 1% HPMC with 0.1% Tween80). At 0.25, 0.5, 1, 2, 4, 6, and 24 hours after dose administration blood samples were drawn via jugular vein catheter into EDTA tubes and maintained chilled on ice prior to centrifugation (12,000 rpm, 4 min, 4° C.). Aliquots of plasma were transferred to cluster tubes and stored frozen (−80° C.) prior to bioanalysis. Plasma samples were vortexed prior to transferring a 50 μL aliquot of sample to a 96-well plate and extracted with 200 μL acetonitrile containing an internal standard. Following extraction, samples were centrifuged for 10 min at 3700 RPM (2809×g). The supernatant was transferred to a new 96-well plate and then diluted in 0.2% formic acid in water (3-fold dilution). For all samples, 10 μL was injected onto a Waters Xbridge (C18 30×2.1 mm) column with a flow rate of 0.80 mL/min. Mobile phase A consisted of 0.2% formic acid in water and mobile phase B 0.2% formic acid in acetonitrile. Plasma levels of compound (I) were determined by LC-MS-MS analysis. Standard PK parameters were determined using Phoenix WinNonlin, (Certara Inc.).

[2] = system: TPA-induced increase in ear thickness; test: Assay 10: in vivo TPA-induced acute dermatitis model in mice; set-up: species or system female Balb/c mice
Description: Assay 10: In Vivo TPA-Induced Acute Dermatitis Model in Mice
The objective of this assay is to assess the anti-inflammatory effect of compound (I), in a model of acute dermatitis being studied for cutaneous inflammatory conditions such as atopic dermatitis (Dong et al., J Pharmacol Exp Ther, 2013, 344, 436-446).
Topical dermal application of phorbol ester TPA in mice causes an inflammatory response that is characterized by edema and neutrophil influx at the early phase (2-24 h) and by epidermal cell proliferation at the later phase (24-48 h) (Griffiths et al., Agents and Actions, 1988, 25, 344-351). In this model, female Balb/c mice were topically administered with 20 μl/ear of either vehicle or TPA (2.5 μg). For the solution formulation, vehicle (1:7 DMSO:Acetone) or test compound was topically applied 30 min before and 15 min after TPA administration. For the ointment formulation, vehicle or compound (I) (0.5% strength) was applied 30 min before TPA. The degree of inflammation was assessed as the change in ear thickness at 6 hours after TPA application.

[3] = system: IL-22 suppressed Filaggrin expression; test: Assay 15: recovery of IL-22 suppressed Filaggrin in normal human epidermal keratinocytes; type: cell-based; details: IL-22 50 ng/mL, 4 days
Description: Assay 15: Recovery of IL-22 Suppressed Filaggrin in Normal Human Epidermal Keratinocytes
IL-22 is known to inhibit the expression of terminal differentiation genes, such as Filaggrin. The recovery level of test compound for interleukin-22 (IL-22) suppressed Filaggrin expression was measured in the normal human epidermal keratinocytes (ATCC) using real-time PCR.
Primary epidermal keratinocytes were cultured in a 37° C., 5% CO2 humidified incubator in dermal cell basal medium (ATCC) supplemented with keratinocyte growth kit (ATCC) and 1× Pen/Strep (Life Technologies). Cells were seeded at 5,000 cells/well in BioCoat 96-well plates (Corning) with 100 μl and incubated at 37° C., 5% CO2 for 3 to 4 days till 100% confluency. Then, the medium was removed and replaced with 150 μL of medium containing does-response of test compounds. Compounds were serially diluted in DMSO and then diluted another 1000-fold in media to bring the final DMSO concentration to 0.1%. On day 1 of the assay, cells were incubated with test compounds at 37° C. for 1 h, and followed by the addition of followed by the addition of IL-22 (R&D Systems; final concentration 50 ng/mL) in pre-warmed media (50 μL) for 4 days. […] Fluorescence signals were captured after each cycle. Comparative CT method was used to quantify gene expression with cells without IL-22 and test compounds as baseline control.

Molecule `CCS(=O)(=O)N1[C@@H]2CCC[C@H]1C[C@H](N(C)c1nc(CO)c(F)c(Nc3cc(C)[nH]n3)n1)C2` [Compound (I), (2-(((1R,3s,5S)-9-(ethylsulfonyl)-9-azabicyclo[3.3.1]nonan-3-yl)(methyl)amino)-5-fluoro-6-((5-methyl-1H-pyrazol-3-yl)amino)pyrimidin-4-yl)methanol] has a clearance ([1]; plasma, rat, IV (1 mg/kg)) of 59 mL/min/kg, a Vd ([1]; plasma, rat, IV (1 mg/kg), read-out: Vdss) of 1.1 L/kg and a bioavailability ([1]; plasma, rat, PO (5 mg/kg)) of 7.7%. It also gave an AUC(0-t) ([1]; rat plasma, IV (1 mg/kg)) of 291 ng·h/mL, a Cmax ([1]; rat plasma, IV (1 mg/kg)) of 907 ng/mL and a half-life ([1]; rat plasma, IV (1 mg/kg), read-out: T½ (converted)) of 1.34 h. For the same molecule, the AUC(0-t) ([1]; rat plasma, PO (5 mg/kg)) was 112 ng·h/mL, the Cmax ([1]; rat plasma, PO (5 mg/kg)) was 77 ng/mL and the “Inhibition of TPA-induced increase in ear thickness (mean % inh ± SEM (n))” value [2] was 34.9%. The “Inhibition of TPA-induced increase in ear thickness (mean % inh ± SEM (n))” value ([2]; 30 μg/ear dosed as solution, 6 hours after TPA) was 6.6% ± 1.1%, the “Inhibition of TPA-induced increase in ear thickness (mean % inh ± SEM (n))” value ([2]; 100 μg/ear dosed as solution, 6 hours after TPA) was 2.4% ± 0.7% and the “Inhibition of TPA-induced increase in ear thickness (mean % inh ± SEM (n))” value ([2]; 300 μg/ear dosed as solution, 6 hours after TPA) was 35.5% ± 3.1%. For the same molecule, the “Inhibition of TPA-induced increase in ear thickness (mean % inh ± SEM (n))” value ([2]; 1000 μg/ear dosed as solution (highest dose), 6 hours after TPA) was 54.8 ± 2.6%, the “Inhibition of TPA-induced increase in ear thickness (mean % inh ± SEM (n))” value ([2]; 0.5% Ointment, 20 μl/ear, 30 min before TPA, 6 hours after TPA) was 34.9% ± 3.3% (12) and the “effect on TPA-induced increase in ear thickness (in words)” value ([2]; dosed as a solution) was “dose-dependent effect; also recorded: dose dependent manner”. For the same molecule, the “concentration at which recovery of IL-22 suppressed Filaggrin expression was observed” value [3] was under 1 µM.
